For series [1] the following is noted: mouse, in vivo.
Series [2] deals with A549 cells.
Series [3] concerns A549 cells. The source holds these as a separate data set.
A further series deals with Sindbis virus. As to conditions: cited from earlier work.
The next series concerns HIV-1 NL4-3 isolate. It is filed as cell-based. As to conditions: read-out: IC50 (50% inhibition of virus replication).
For series [4], the system named is Zaire Ebola GFP virus. It is filed as cell-based.
Another series has as its system Ebola virus. On the set-up: species or system mice. Particulars: mouse, in vivo, ip, 8 mg/kg.
Another series deals with HIV-1 Ba-L isolate. In kind it is cell-based. Particulars: read-out: IC50 (50% inhibition of virus replication).
The subject of series [5] is Zaire Ebola GFP virus. As to conditions: read-out: IC50 for the fit.
Another series deals with HIV-1. In kind it is cell-based.
Series [6] has as its system Zaire Ebola GFP virus. It is filed as cell-based. The source holds these as a separate data set.

Where two headings read alike, the source gives them in different places.

Consider `N.N.N.N.N.N.[Cl-].[Cl-].[Cl-].[Co+3]` [Cohex, Hexaamminecobalt(III) chloride], for which the “concentration until which no toxic effect appears” value with HepG2 cells and in the series on A549 cells [2] was “about 0.1 mM” throughout. Besides, the “viability (leveling off)” value in the series on 293T cells and in the series with VeroE6 cells was 70-80% in each case. The tolerability result in series [1] is reported as “no adverse reactions reported”. For the same molecule, in the series on A549 cells [3], the “dead cells by PI staining” value is given as “almost no change”. The “cell viability and viral expression” value in the series with Sindbis virus is “effective in significantly enhancing cell viability and in depressing viral expression”. In addition, the IC50 in the series on HIV-1 NL4-3 isolate came out at 28.6 µM; in the series with HIV-1 Ba-L isolate it was 33.8 µM; in the series with Zaire Ebola GFP virus [5], 380 µM; in the series on HIV-1, 31.2 µM. In the series on PBMCs, this molecule displayed a CC50 of 833 µM. Further, the “concentrations at which cytotoxicity was observed” value in the series on PBMCs is listed as “above 100 μM”. Besides, the “suppression of viral expression (GFP)” value with Zaire Ebola GFP virus [4] and in the series with Zaire Ebola GFP virus [6] was about 100% throughout. Moreover, the “survival versus PBS treatment” value with Ebola virus is on record as “improved survival rates”.

The values above are taken from US20110027388A1 (priority 2009, published 2011).
